The record followed here is PubChem BioAssay (NCI).

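Protocol summary: plate cells (96-well), add compound at 5 concentrations, incubate 48 h, interpolate endpoints linearly. Abbreviation: GI50, concentration required for 50% inhibition of growth. TGI: total growth inhibition.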 A value given as a limit tells only on which side of the number the result lay.

Among the test systems are OVCAR-3 ovarian; HCT-116 colon; LOX IMVI melanoma; K-562 leukemia; HL-60(TB) leukemia; T-47D breast; HOP-62 NSCLC; 786-0 renal; COLO 205 colon; OVCAR-5 ovarian.
Test in all cases: inhibition of tumour cell growth, NCI panel, 48 h

`O=[N+]([O-])c1ccc(Cl)c2c([N+](=O)[O-])cccc12`: the TGI is greater than 10 µM in the experiment on OVCAR-3 ovarian; 5.32 µM with HCT-116 colon; greater than 10 µM in the experiment on LOX IMVI melanoma; greater than 10 µM with K-562 leukemia; 7.16 µM in the experiment with HL-60(TB) leukemia; greater than 10 µM with T-47D breast. Further, the TGI in the experiment with HOP-62 NSCLC, in the experiment with 786-0 renal and in the experiment on COLO 205 colon was greater than 10 µM throughout.
Turning to `CCn1cc(C(=O)O)c(=O)c2cc(F)c(N3CCN(S(=O)(=O)c4cccc5ccccc45)CC3)cc21`, the GI50 with OVCAR-3 ovarian was 3.69 µM; in the experiment on HCT-116 colon, 3.88 µM; in the experiment with K-562 leukemia, 3.93 µM; with HL-60(TB) leukemia, 2.58 µM; in the experiment on T-47D breast, 3.35 µM; with HOP-62 NSCLC it was 4.6 µM. The values for the GI50 in the experiment with OVCAR-5 ovarian, in the experiment on 786-0 renal and in the experiment with COLO 205 colon were 3.38 µM, 4.5 µM and 2.02 µM, respectively. Moreover, the TGI with OVCAR-3 ovarian is 15.6 µM; in the experiment with HCT-116 colon, greater than 100 µM; in the experiment with K-562 leukemia, greater than 100 µM; with HL-60(TB) leukemia, 6.41 µM; in the experiment on T-47D breast it was greater than 100 µM; in the experiment on HOP-62 NSCLC, 39.2 µM. Moreover, the TGI is greater than 100 µM with OVCAR-5 ovarian, 20.9 µM in the experiment with 786-0 renal and 3.91 µM in the experiment on COLO 205 colon.
As to `CCN(CC)Cc1cc(Nc2nc(NC3CCC(N(C)C)CC3)c3ccccc3n2)ccc1OC` (configuration not stated), the GI50 was 11.6 µM in the experiment with OVCAR-3 ovarian; 3.37 µM with HCT-116 colon; 1.98 µM with K-562 leukemia; 3.87 µM in the experiment on HL-60(TB) leukemia; 5.4 µM with T-47D breast; 8.63 µM in the experiment on HOP-62 NSCLC. The GI50 in the experiment on OVCAR-5 ovarian is 5 µM; in the experiment on 786-0 renal, 6.67 µM; in the experiment with COLO 205 colon it was 1.5 µM. Further, the TGI in the experiment with OVCAR-3 ovarian was found to be 24.7 µM; in the experiment on HCT-116 colon, 12.8 µM; with K-562 leukemia, 5.23 µM; with HL-60(TB) leukemia it was 14.9 µM; in the experiment with T-47D breast it was 18.9 µM; with HOP-62 NSCLC, 20.9 µM. For the same compound, the TGI with OVCAR-5 ovarian amounted to 20.7 µM; in the experiment with 786-0 renal, 19.3 µM; in the experiment with COLO 205 colon, 2.87 µM.
`O=C(NCCNCCO)c1ccc2c(c1)oc1cc3ccccc3c(=O)n12`: the GI50 in the experiment with HCT-116 colon was 22.8 µM; in the experiment with LOX IMVI melanoma, 17.4 µM; in the experiment on K-562 leukemia it was 46.7 µM; in the experiment with HL-60(TB) leukemia, 25.6 µM; in the experiment on T-47D breast it was 24.7 µM; in the experiment on HOP-62 NSCLC, greater than 50 µM. Also, the GI50 in the experiment on 786-0 renal is greater than 50 µM; in the experiment with COLO 205 colon, 18.9 µM. Besides, the TGI with HCT-116 colon is greater than 50 µM; in the experiment on LOX IMVI melanoma it was 40.6 µM; in the experiment on K-562 leukemia, greater than 50 µM; with HL-60(TB) leukemia it was greater than 50 µM; with T-47D breast it was greater than 50 µM; in the experiment on HOP-62 NSCLC, greater than 50 µM. In addition, the TGI in the experiment with 786-0 renal is greater than 50 µM; with COLO 205 colon it was 47.3 µM.
Consider `O=C1CC(c2ccccc2)Oc2ccccc21` (configuration not stated), for which the TGI in the experiment on HCT-116 colon was greater than 100 µM; with LOX IMVI melanoma, 84.3 µM; with K-562 leukemia, 32.6 µM; in the experiment on HL-60(TB) leukemia, 49.5 µM; in the experiment on T-47D breast it was greater than 100 µM; with HOP-62 NSCLC it was greater than 100 µM. Also, the TGI in the experiment with 786-0 renal and in the experiment on COLO 205 colon was greater than 100 µM in each case.
On to `CC1(C)OC[C@@H]([C@@]2(CO[Si](c3ccccc3)(c3ccccc3)C(C)(C)C)CC=CC(=O)O2)O1`, for which the GI50 in the experiment with OVCAR-3 ovarian was 4.3 µM; in the experiment with HCT-116 colon, 4.86 µM; in the experiment with LOX IMVI melanoma, 3.93 µM; in the experiment with K-562 leukemia it was 3.91 µM; in the experiment with T-47D breast, 8.03 µM; in the experiment on HOP-62 NSCLC, 31.5 µM. In addition, the GI50 was 16.7 µM in the experiment on OVCAR-5 ovarian, 8.96 µM in the experiment with 786-0 renal and 8.69 µM in the experiment on COLO 205 colon. Besides, the TGI is greater than 100 µM in the experiment on OVCAR-3 ovarian; greater than 100 µM in the experiment with HCT-116 colon; 21 µM in the experiment with LOX IMVI melanoma; greater than 100 µM with K-562 leukemia; greater than 100 µM in the experiment with T-47D breast; 60.9 µM in the experiment with HOP-62 NSCLC. Besides, the TGI in the experiment on OVCAR-5 ovarian was 49.6 µM; with 786-0 renal, 32.8 µM; in the experiment with COLO 205 colon it was greater than 100 µM.
In the case of `COc1ccc(C(=O)c2cc(OC)c(OC)c(OC)c2OC)cc1O`, the GI50 with OVCAR-3 ovarian is 2.83 µM; in the experiment on HCT-116 colon it was 3.98 µM; in the experiment on LOX IMVI melanoma, 4.95 µM; in the experiment on HL-60(TB) leukemia it was 2.77 µM; in the experiment on T-47D breast, 4.64 µM; in the experiment on HOP-62 NSCLC, 4.14 µM. Moreover, the GI50 with OVCAR-5 ovarian is 17.5 µM; with 786-0 renal, 4.35 µM; in the experiment on COLO 205 colon, 8.27 µM. Also, the TGI in the experiment with OVCAR-3 ovarian was 7.65 µM; in the experiment with HCT-116 colon, greater than 100 µM; with LOX IMVI melanoma, greater than 100 µM; in the experiment on HL-60(TB) leukemia, 9.82 µM; with T-47D breast, greater than 100 µM; with HOP-62 NSCLC it was greater than 100 µM. In addition, the values for the TGI in the experiment with OVCAR-5 ovarian, with 786-0 renal and in the experiment on COLO 205 colon were greater than 100 µM, greater than 100 µM and 34.3 µM, respectively.
Regarding `CSC1=Nc2c(c(C)c(C)n2COC(CO)CO)C2=NC(=O)CN12`, the GI50 in the experiment on OVCAR-3 ovarian, in the experiment with HCT-116 colon, in the experiment with LOX IMVI melanoma, with K-562 leukemia, with T-47D breast and in the experiment with HOP-62 NSCLC was greater than 100 µM in each case. Also, the GI50 with OVCAR-5 ovarian, in the experiment with 786-0 renal and in the experiment with COLO 205 colon was greater than 100 µM each time. Also, the TGI with OVCAR-3 ovarian, in the experiment on HCT-116 colon, in the experiment on LOX IMVI melanoma, in the experiment on K-562 leukemia, in the experiment with T-47D breast and in the experiment with HOP-62 NSCLC was greater than 100 µM each time. In addition, the TGI with OVCAR-5 ovarian, in the experiment on 786-0 renal and with COLO 205 colon was greater than 100 µM in each case.
Regarding `COC(=O)OC1C(O[C@H]2C[C@H]3[C@@H]4CC=C5C[C@@H](O)CC[C@]5(C)[C@H]4CC[C@]3(C)[C@H]2[C@H](C)C(=O)CCC(C)C)OCC(O)C1OC1OCC(O)C(O)C1OC(=O)c1ccc(OC)cc1` (some centres not stated), the GI50 was 0.345 µM in the experiment with OVCAR-3 ovarian; 0.00886 µM with HCT-116 colon; 0.0209 µM in the experiment on T-47D breast; 0.0102 µM in the experiment with HOP-62 NSCLC; 0.0982 µM in the experiment with OVCAR-5 ovarian; less than 0.00275 µM in the experiment on 786-0 renal. In the experiment on COLO 205 colon, the GI50 was 0.034 µM. Also, the TGI was 16.8 µM in the experiment with OVCAR-3 ovarian; greater than 27.5 µM in the experiment with HCT-116 colon; 0.647 µM in the experiment on T-47D breast; 0.673 µM in the experiment on HOP-62 NSCLC; 2.63 µM with OVCAR-5 ovarian; 0.503 µM with 786-0 renal. In the experiment with COLO 205 colon, this compound had a TGI of 0.253 µM.
